Measured values as given in patent publication US5663295A, “Opioid peptides” (Biomeasure Inc., priority 1994, dated 1997).

What was measured:
[1] = molecular target: μ receptor; test: In vitro receptor binding, μ receptor, radioligand DAGO; set-up: species or system guinea-pig or rat; settings: forebrain membranes, 25° C., 60 min
Procedure: (§1) The following procedure was used to determine the ability of various opioid peptides to inhibit binding at opioid receptors. Crude membranes were prepared by homogenization of guinea-pig or rat forebrain samples in 20 ml of ice-cold 50 mM Tris-HCl with a Brinkman Polytron (setting 6, 15 sec.). Buffer was added to obtain a final volume of 40 ml, and the homogenate centrifuged in a Sorval SS-34 rotor at 39,000 g for 10 min. at 0°-4° C. The resulting supernatant was decanted and discarded. The pellet was rehomogenized in ice-cold buffer, pre-incubated at 37° C. for 45 min., diluted, and centrifuged as before. The final pellet was resuspended in 50 mM Tris HCl and held on ice for the receptor binding assay.
(§2) Aliquots of the washed membrane preparation (described above) were incubated in 50 mM Tris HCl at a total volume of 2.0 ml at 25° C. with an opioid receptor ligand (see below) and various concentrations of the unlabeled test compounds. Mu and kappa receptor assays were incubated for 60 minutes. […] At the end of the incubation periods, the assays were terminated by rapid filtration though Whatman GF/B glass fiber filters, and the bound radioactivity trapped on the filters counted by liquid scintillation spectrometry. For each of the three receptor subtypes, specific binding was calculated as the total radioligand bound minus that bound in the presence of 1000 nM levallorphan. […]

[2] = molecular target: κ receptor; test: In vitro receptor binding, κ receptor, radioligand U69,593; set-up: species or system guinea-pig or rat; settings: forebrain membranes, 25° C., 60 min
Procedure: as §1, §2

[3] = molecular target: δ receptor; test: In vitro receptor binding, δ receptor, radioligand DPPE; set-up: species or system guinea-pig or rat; settings: forebrain membranes, 25° C., 40 min
Procedure: as §1, §2

[4] = system: Human NSLC A549; test: Subcutaneous tumor assay, human non-small cell lung cancer A549 xenografts; assay type: in vivo, athymic nude mice
Procedure: Table 5 compares the antitumor activity of an opioid BIM-38009 versus methadone. A subcutaneous tumor assay was used in which xenografts of the human non-small cell lung cancer were implanted s.c. in athymic nude mice. Test compounds were administered s.c. or i.p., twice daily, from day 4 post tumor implantation to day 35. The results are reported as means±s.e.m. on 8 animals per group. For structure of BIM-38009, see above.

C[C@@H](NC(=O)[C@@H](N)Cc1ccc(O)cc1)C(=O)NCC(=O)N[C@@H](CCc1ccccc1)C(N)=O [BIM-38046, tyrosyl-D-alanyl-glycyl-homophenylalanine amide]
Ki [1]: 2.92 ± 1.12 nM | Ki [2]: 849 nM | Ki [3]: 72.7 nM

CCC(=O)C(CC(C)N(C)C)(c1ccccc1)c1ccccc1 (centres unmarked) [Methadone]
Tumor Weight (mg) (Day 34) ([4]; A549 xenograft s.c., treatment days 4-35, mean ± s.e.m., 8 animals per group): 337 ± 57 mg | & T/C ([4]; A549 xenograft, tumor weight Day 34, treated versus control): 110
